Laboratory results as given in ChEMBL document CHEMBL1201862, “PubChem BioAssay data set” (2004).
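Where inhibition never reached the appropriate level, the endpoint shown equals the highest concentration tested. Otherwise, values were interpolated linearly from a five-concentration, 48-hour dose response in 96-well plates. Abbreviation: GI50, concentration required for 50% inhibition of growth.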 The source made the active and inactive calls. Cut-off read from the data, not from the text of the source: active = GI50 up to about 1.1 µM and inactive = higher.

Experiments:
Experiment in all cases: growth of human tumour cells (NCI), 48 h
NCI-H226 = test system: NCI-H226
NCI-H460 = test system: NCI-H460
Hs-578T = test system: Hs-578T
LOX IMVI = test system: LOX IMVI
U-251 = test system: U-251
SN12C = test system: SN12C
NCI/ADR-RES = test system: NCI/ADR-RES
HOP-62 = test system: HOP-62
RXF 393 = test system: RXF 393
UACC-257 = test system: UACC-257
A498 = test system: A498
SR = test system: SR
SF-539 = test system: SF-539
SNB-19 = test system: SNB-19
COLO 205 = test system: COLO 205
MCF7 = test system: MCF7
786-0 = test system: 786-0
CCRF-CEM = test system: CCRF-CEM
UO-31 = test system: UO-31
HCC 2998 = test system: HCC 2998

SMILES | GI50 (NCI-H226) | GI50 (NCI-H460) | GI50 (Hs-578T) | GI50 (LOX IMVI) | GI50 (U-251) | GI50 (SN12C) | GI50 (NCI/ADR-RES) | GI50 (HOP-62) | GI50 (RXF 393) | GI50 (UACC-257) | GI50 (A498) | GI50 (SR) | GI50 (SF-539) | GI50 (SNB-19) | GI50 (COLO 205) | GI50 (MCF7) | GI50 (786-0) | GI50 (CCRF-CEM) | GI50 (UO-31) | GI50 (HCC 2998)
CC1=C2c3ccccc3N(S(=O)(=O)c3ccccc3)[C@H]2[C@H](C(=O)N2C3CC4CC[C@@]3(CS2(=O)=O)C4(C)C)CC1 (stereo partly specified) | 37.4 µM (inactive) | 5.48 µM (inactive) | 0.627 µM (active) | 23.6 µM (inactive) | 6.59 µM (inactive) | 39.1 µM (inactive) | 35.9 µM (inactive) | 16.4 µM (inactive) | 0.222 µM (active) | 33.7 µM (inactive) | 87.9 µM (inactive) | 12.5 µM (inactive) | 0.415 µM (active) | 24.9 µM (inactive) | 47.9 µM (inactive) | 18 µM (inactive) | 0.41 µM (active) | 35.3 µM (inactive) | 9.06 µM (inactive) | 
Cc1nc2c(N3CCCC3)nc(N3CCNCC3)nc2nc1NCc1ccccc1 | 13.1 µM (inactive) | 3.56 µM (inactive) | 6.17 µM (inactive) | 1.65 µM (inactive) | 3.2 µM (inactive) | 7.29 µM (inactive) | 13 µM (inactive) | 2.94 µM (inactive) |  | 1.94 µM (inactive) | 4.79 µM (inactive) | 2.84 µM (inactive) | 2.65 µM (inactive) | 5.66 µM (inactive) | 1.24 µM (inactive) | 2.33 µM (inactive) | 4.9 µM (inactive) | 2.4 µM (inactive) | 2.41 µM (inactive) | 1.53 µM (inactive)
C#CC(O)/C=C/C(O)CCCC(O)CC#CC(O)C#CC(O)CCCC(O)/C=C/CCCCCC(=O)CCCCCCCCCCCCCC(O)C(O)C#CC(=O)O (stereo unspecified) | > 50 µM (inactive) | > 50 µM (inactive) | 12.2 µM (inactive) | 12.8 µM (inactive) | > 50 µM (inactive) | > 50 µM (inactive) | > 50 µM (inactive) | > 50 µM (inactive) |  | > 50 µM (inactive) | > 50 µM (inactive) | 13.1 µM (inactive) |  | > 50 µM (inactive) | > 50 µM (inactive) | 14.3 µM (inactive) | > 50 µM (inactive) | 14.3 µM (inactive) | > 50 µM (inactive) | > 50 µM (inactive)
Cn1c(=O)c2c(nc(-n3nc(-c4ccc(Cl)cc4)cc3N)n2C)n(C)c1=O | 55.2 µM (inactive) | > 100 µM (inactive) | 22.4 µM (inactive) |  | > 100 µM (inactive) | > 100 µM (inactive) | 39.6 µM (inactive) | 10.5 µM (inactive) | > 100 µM (inactive) | > 100 µM (inactive) | > 100 µM (inactive) | 13 µM (inactive) | 17.3 µM (inactive) | > 100 µM (inactive) | > 100 µM (inactive) | 68.4 µM (inactive) | 6.9 µM (inactive) | > 100 µM (inactive) | > 100 µM (inactive) | > 100 µM (inactive)
O=C(O)C1CCCN1Cc1c[nH]c2ccccc12 (stereo unspecified) | > 100 µM (inactive) | > 100 µM (inactive) | > 100 µM (inactive) | > 100 µM (inactive) | > 100 µM (inactive) | > 100 µM (inactive) | > 100 µM (inactive) | > 100 µM (inactive) | > 100 µM (inactive) | > 100 µM (inactive) | > 100 µM (inactive) | > 100 µM (inactive) | > 100 µM (inactive) | > 100 µM (inactive) | > 100 µM (inactive) | > 100 µM (inactive) | > 100 µM (inactive) | > 100 µM (inactive) | > 100 µM (inactive) | 
COc1ccc(CN2C(=O)CCC/C=C\[C@H]2CI)cc1 | 12.9 µM (inactive) | 13.1 µM (inactive) | 14.2 µM (inactive) | 17.6 µM (inactive) | 13.6 µM (inactive) | 14 µM (inactive) | 13.7 µM (inactive) | 16 µM (inactive) | 3.32 µM (inactive) | 10.1 µM (inactive) | 12.5 µM (inactive) | 11.5 µM (inactive) | 13.6 µM (inactive) | 13.2 µM (inactive) | 13.9 µM (inactive) | 10.7 µM (inactive) | 14 µM (inactive) |  | 11.6 µM (inactive) | 11.6 µM (inactive)
CCNC1(c2cccc(C)c2)OC(C)(C)c2cccc3cccc1c23 (stereo unspecified) | 19.9 µM (inactive) | 15.2 µM (inactive) | 20.1 µM (inactive) | 17.3 µM (inactive) | 16.9 µM (inactive) | 19 µM (inactive) | 19.8 µM (inactive) | 21 µM (inactive) | 16.8 µM (inactive) | 18.8 µM (inactive) | 17.5 µM (inactive) | 5.16 µM (inactive) | 17.9 µM (inactive) | 18.2 µM (inactive) | 16.1 µM (inactive) | 17.7 µM (inactive) | 18.8 µM (inactive) | 2.5 µM (inactive) | 16.1 µM (inactive) | 
O=C(/C=C/c1cc2ccccc2o1)N1CCN(c2ccccn2)CC1 |  | 91.6 µM (inactive) | > 100 µM (inactive) | > 100 µM (inactive) | > 100 µM (inactive) | > 100 µM (inactive) | 60.7 µM (inactive) | 97.9 µM (inactive) | > 100 µM (inactive) | > 100 µM (inactive) | > 100 µM (inactive) | > 100 µM (inactive) | > 100 µM (inactive) | > 100 µM (inactive) | 85.7 µM (inactive) | 57.5 µM (inactive) | > 100 µM (inactive) | > 100 µM (inactive) | 40.9 µM (inactive) | > 100 µM (inactive)
CN(Cc1cc(Cl)c(Cl)cc1NC(=O)CN)[C@H]1CCCC[C@@H]1N1CCCC1 | 66.4 µM (inactive) | 21.8 µM (inactive) | 24.9 µM (inactive) | 15.4 µM (inactive) | 5.2 µM (inactive) | 69.3 µM (inactive) | > 100 µM (inactive) | 92.7 µM (inactive) | > 100 µM (inactive) | 16.9 µM (inactive) | 18.4 µM (inactive) | 21.5 µM (inactive) |  | 45.2 µM (inactive) | 15.2 µM (inactive) | 32.4 µM (inactive) | 17.1 µM (inactive) | 30.3 µM (inactive) | 20.7 µM (inactive) | 17.2 µM (inactive)
CCOC(=O)Nc1[nH]cc(-c2ccccc2)c1C#N | > 100 µM (inactive) |  | > 100 µM (inactive) | > 100 µM (inactive) | > 100 µM (inactive) | > 100 µM (inactive) | > 100 µM (inactive) | > 100 µM (inactive) |  |  | > 100 µM (inactive) | > 100 µM (inactive) |  | > 100 µM (inactive) | > 100 µM (inactive) | > 100 µM (inactive) | > 100 µM (inactive) | > 100 µM (inactive) | > 100 µM (inactive) | 
Cc1c2c(n(Cc3ccccn3)c1C)NN=C(C#N)S2(=O)=O | > 100 µM (inactive) | > 100 µM (inactive) | > 100 µM (inactive) | > 100 µM (inactive) | > 100 µM (inactive) | > 100 µM (inactive) | > 100 µM (inactive) | > 100 µM (inactive) |  | > 100 µM (inactive) | > 100 µM (inactive) | > 100 µM (inactive) | > 100 µM (inactive) | > 100 µM (inactive) | > 100 µM (inactive) | > 100 µM (inactive) | > 100 µM (inactive) |  | > 100 µM (inactive) | > 100 µM (inactive)
CC(=O)N1CCOC12N=NC(C)(C)O2 (stereo unspecified) |  | > 100 µM (inactive) | > 100 µM (inactive) | > 100 µM (inactive) | > 100 µM (inactive) | > 100 µM (inactive) | > 100 µM (inactive) | > 100 µM (inactive) |  | > 100 µM (inactive) | > 100 µM (inactive) | > 100 µM (inactive) | > 100 µM (inactive) | > 100 µM (inactive) | > 100 µM (inactive) | > 100 µM (inactive) | > 100 µM (inactive) |  | > 100 µM (inactive) | > 100 µM (inactive)
c1ccc2/c3[nH]/c(c2c1)=N\c1ccc(cc1)-c1nc2cc(ccc2o1)/N=c1/[nH]/c(c2ccccc12)=N/c1ccc2nc(oc2c1)-c1ccc(cc1)\N=3 |  | 51.8 µM (inactive) | > 100 µM (inactive) | > 100 µM (inactive) | > 100 µM (inactive) | > 100 µM (inactive) | 32.1 µM (inactive) | 78.3 µM (inactive) | > 100 µM (inactive) | > 100 µM (inactive) | > 100 µM (inactive) | > 100 µM (inactive) |  | > 100 µM (inactive) | > 100 µM (inactive) | > 100 µM (inactive) | > 100 µM (inactive) | > 100 µM (inactive) | > 100 µM (inactive) | 6.9 µM (inactive)
O=C(CCc1cc(O)ccc1O)OCCc1ccccc1 | > 28.3 µM (inactive) | 44.8 µM (inactive) | 16.1 µM (inactive) |  | 13.6 µM (inactive) | 16.8 µM (inactive) | 19.1 µM (inactive) | 36.1 µM (inactive) | 11.7 µM (inactive) | 12.4 µM (inactive) | > 100 µM (inactive) | 5.6 µM (inactive) | 3.83 µM (inactive) | 48.5 µM (inactive) | 14.2 µM (inactive) | 15.8 µM (inactive) | 9.53 µM (inactive) | 0.313 µM (active) | 4.6 µM (inactive) | 47.2 µM (inactive)
CCN(CC)CCNc1ccc2ncn3c4c(OC)ccc(OC)c4c(=O)c1c23 | 90.8 µM (inactive) | 4.4 µM (inactive) | > 10 µM (inactive) |  | 15.5 µM (inactive) | > 10 µM (inactive) | 5.6 µM (inactive) | > 100 µM (inactive) | 1.71 µM (inactive) | > 100 µM (inactive) | 93.3 µM (inactive) | 3.72 µM (inactive) | 20.8 µM (inactive) | 20 µM (inactive) | 0.841 µM (active) | 3.57 µM (inactive) | 11.5 µM (inactive) | 1.22 µM (inactive) | > 100 µM (inactive) | 15.3 µM (inactive)
